Reference: patent US20160311788A1, “Antifouling Compounds And Use Thereof” (National University of Singapore, priority 2008, published 2016)
≈ marks a conversion by molar mass, not a printed value. Read-outs that look alike come from different tables or passages of the source.

What was measured:
[1] = system: marine bacteria strain S27; assay: disc inhibition assay, strain S27; type: cell-based, Tenacibaculum lutimaris; conditions: Tenacibaculum lutimaris, S27, 24 h
How it was run: (§1)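 50 μg compound/6 mm disc (from 2 mg/ml DMSO stock); DMSO blank disc control. Lawn swabbed on Marine Agar from marine broth culture. Overnight, 35° C, dark. Readout: inhibition zone diameter (calipers), mean of 2 replicates.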

[2] = system: marine bacteria strain S9; assay: disc inhibition assay, strain S9; type: cell-based, Bacillus algicola; conditions: Guptibacillus algicola, S9, 24 h
How it was run: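 Marine broth cultures are swabbed over Marine Agar to form a lawn. Discs holding 50 μg compound, or DMSO alone, are placed on the surface. Plates are kept overnight at 35° C without light. Inhibition zone widths are then measured and the two replicates averaged.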

[3] = system: marine bacteria strain S4; assay: disc inhibition assay, strain S4; type: cell-based, Bacillus algicola; conditions: Guptibacillus algicola, S4, 24 h
How it was run: as §1

[4] = system: Stage II nauplii of Balanus amphitrite; assay: barnacle toxicity assay; type: in vivo; conditions: for LD50: Table 3(a), concentration that caused 50% mortality, 22 to 24 hours, Stage II nauplii
Method: (§2) Pure compounds were suspended in DMSO and sonicated to obtain a stock solution of 50 mg ml^−1 in DMSO. This stock solution is stored at −20° C. in 4 ml amber screw cap vials. For the bioassays, a small volume of stock solution was added to 1 μm filtered seawater in a glass scintillation vial. This suspension was then sonicated around 10 minutes. Serial dilutions were generated to the required range of concentrations. Serial dilution of the equivalent amounts of DMSO in seawater was used as the control.
(§3) The barnacle bioassay method used follows from the method first introduced by Rittschof et al. (1992), and subsequently by other authors (Willemsen et al., 1998). This method is now standard practice for many antifouling screening of novel compounds.
Toxicity assays were modified from Rittschof et al. (1992). Stage II naupliar larvae used in tests were obtained from Balanus amphitrite adults collected from inter-tidal rock walls at Kranji mangrove, Singapore. Larvae were collected from a container of adults by attraction to a point source of light and transferred to 500 ml of fresh seawater. Next, larvae were re-concentrated with a fiber optic light and added to assays.
Duplicate assays were conducted in 2 ml glass vials (La Pha Pack® PN 11-14-0544) in 1 ml of filtered seawater for 22 to 24 hours. The assays were repeated for confirmation. There were two sets of controls, a blank control consisting of 3 tubes of seawater only, and DMSO control consisting of the equivalent dilution series with DMSO without compound). For the compounds, there were 3 tubes of each for each test concentration. The assay was initiated by addition of barnacle naupliar in 50 μl of seawater. After 22 to 24 hours of incubation at 25-27° C. solutions containing test animals were transferred to a Bogorov tray and scored as living or dead. Moribund larvae were scored as dead. Results were confirmed by repeating the assay. Data were combined and the concentration that caused 50% mortality (LD50) was calculated by probit analysis using a basic computer program (Libermann, 1983). If data were not appropriate for probit analysis, the LD50 was estimated from graphed data.

[5] = system: marine bacteria strain S3; assay: disc inhibition assay, strain S3; type: cell-based, Erythrobacter aquimaris; conditions: Qipengyuania aquimaris, S3, 24 h
How it was run: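 Disc inhibition assay against a marine bacterial strain isolated from fouling communities in Singapore coastal waters. The strain was grown in marine broth and swabbed over Marine Agar plates as a lawn. 6 mm sterile discs loaded with compound in DMSO, or DMSO controls, were placed on the plates and incubated overnight in the dark at 35° C.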

[6] = system: marine bacteria strain S14; assay: disc inhibition assay, strain S14; type: cell-based, Vibrio probioticus; conditions: strain 14, 50 μg of compound per disc
[7] = system: cyprids of Balanus amphitrite; assay: barnacle settlement assay; type: in vivo; conditions: for IC50: Amphibalanus amphitrite, 24 h, concentration that caused 50% settlement inhibition, 24 hours, cyprids
Method: as §2, §3
Barnacle settlement assays were based on methodology from Rittschof et al. (1992). Barnacle larvae from field-collected adults were reared on an algal mixture of 1:1 v/v of Tetraselmis suecica and Chaetoceros muelleri at 25° C., at approximately 5×10^5 cells per ml density. On this regime, larvae metamorphose to cyprids in 5 days. These cyprids were aged at 4° C. for 2-3 days, and 45-70% settlement after 24 hours (Willemsen et al., 1998).
Settlement tests were conducted in 7 ml neutral glass vials (Samco® T1 03N1) 34 mm by 23 mm diameter, with 20-40 cyprids per well. Test solutions were made up to twice the required final concentration. 0.5 ml of test solution was added into each well, and cyprids were transferred into each well in 0.5 ml of seawater. Assays were done in triplicate. As before, there were two sets of controls, a blank control consisting 3 tubes of seawater only, and DMSO control consisting of the equivalent dilution series with DMSO without compound. After 24 hours, larvae that had attached and metamorphosed were enumerated and the result expressed as percentage settlement. Larvae not attached were scored as not settled. The assays were repeated and the concentration that caused 50% settlement inhibition (ED50) was determined by pro bit analysis using a basic computer program (Lieberman, 1983), or by estimation from graphed data.

[8] = system: marine bacteria strain S18; assay: disc inhibition assay, strain S18; type: cell-based, Microbacterium esteraromaticum; conditions: Microbacterium esteraromaticum, S18, 24 h
[9] = system: marine bacteria strain S10; assay: disc inhibition assay, strain S10; type: cell-based, Halobacillus trueperi; conditions: Halobacillus trueperi, S10, 24 h
How it was run: as §1

[10] = system: marine bacteria strain S17; assay: disc inhibition assay, strain S17; type: cell-based, Gordonia terrae; conditions: Gordonia terrae, S17, 24 h
How it was run: as §1

[11] = system: marine bacteria strain S1; assay: disc inhibition assay, strain S1; type: cell-based, Rhodovulum iodosum; conditions: strain 1, 50 μg of compound per disc
How it was run: as §1

[12] = system: marine bacteria strain S29; assay: disc inhibition assay, strain S29; type: cell-based, Bacillus hwajinpoensis
How it was run: as §1

[13] = system: marine bacteria strain S16; assay: disc inhibition assay, strain S16; type: cell-based, Pseudoalteromonas piscicida; conditions: strain 16, 50 μg of compound per disc
How it was run: as §1

[14] = system: marine bacteria strain S30; assay: disc inhibition assay, strain S30; type: cell-based, Bacillus borophilicus
How it was run: as §1

[15] = system: marine bacteria strain S28; assay: disc inhibition assay, strain S28; type: cell-based, Arthrobacter protophormial; conditions: Arthrobacter, S28, 24 h
How it was run: as §1

SMILES: CN(C)C(=O)C(CCN1CCC(O)(c2ccc(Cl)cc2)CC1)(c1ccccc1)c1ccccc1 [LOP, loperamide, reference compound]
- zone of inhibition at 50 µg/disc [1]: 5 to 10 mm
- zone of inhibition at 50 µg/disc [2]: 5 to 10 mm
- zone of inhibition at 50 µg/disc [3]: 5 to 10 mm
- LD50 [4]: 1.56 µg/mL
- zone of inhibition at 50 µg/disc [5]: > 10 mm
- zone of inhibition [6]: −
- IC50 ([7]; read-out: ED50, Table 3(a)): 0.37 mg/L (≈ 0.776 µM)
- zone of inhibition at 50 µg/disc [8]: > 10 mm
- zone of inhibition at 50 µg/disc [9]: 5 to 10 mm
- zone of inhibition at 50 µg/disc [10]: 5 to 10 mm
- zone of inhibition [11]: −
- zone of inhibition at 50 µg/disc ([12]; Guptibacillus hwajinpoensis, S29, 24 h): 5 to 10 mm
- zone of inhibition [13]: −
- zone of inhibition at 50 µg/disc ([14]; Bacillus, S30, 24 h): 2 to 5 mm
- zone of inhibition at 50 µg/disc [15]: 5 to 10 mm

SMILES: O=C(C(c1ccccc1)c1ccccc1)N1CCCCC1 [Compound 4.1, 2,2-Diphenyl-1-(piperidin-1-yl)ethanone]
- zone of inhibition at 50 µg/disc ([1]; strain 27, 50 μg of compound per disc, read-out: zone of inhibition): 2 to 5 mm
- zone of inhibition at 50 µg/disc ([2]; strain 9, 50 μg of compound per disc, read-out: zone of inhibition): 2 to 5 mm
- zone of inhibition at 50 µg/disc ([3]; strain 4, 50 μg of compound per disc, read-out: zone of inhibition): 2 to 5 mm
- LD50 [4]: > 50 µg/mL
- naupliar toxicity in words ([4]; in vivo): no observable naupliar toxicity
- zone of inhibition at 50 µg/disc ([5]; strain 3, 50 μg of compound per disc, read-out: zone of inhibition): 5 to 10 mm
- zone of inhibition [6]: −
- anti-settlement activity in words [7]: displayed anti-settlement activity
- IC50 ([7]; Table 3(a), read-out: ED50 (the source's name)): 2.35 mg/L (≈ 8.41 µM)
- zone of inhibition at 50 µg/disc ([8]; strain 18, 50 μg of compound per disc, read-out: zone of inhibition): 2 to 5 mm
- zone of inhibition at 50 µg/disc ([9]; strain 10, 50 μg of compound per disc, read-out: zone of inhibition): 2 to 5 mm
- zone of inhibition at 50 µg/disc ([10]; strain 17, 50 μg of compound per disc, read-out: zone of inhibition): 2 to 5 mm
- zone of inhibition [11]: −
- zone of inhibition ([12]; strain 29, 50 μg of compound per disc): −
- zone of inhibition [13]: −
- zone of inhibition ([14]; strain 30, 50 μg of compound per disc): −
- zone of inhibition at 50 µg/disc ([15]; strain 28, 50 μg of compound per disc, read-out: zone of inhibition): 2 to 5 mm
